Legend:
Type in all cases: in vivo
[1] = tested on: Rhipicephalus microplus; assay: Rhipicephalus (Boophilus) microplus injection test (BOOPMI Inj); details: 168 h, injection into adult engorged female ticks, egg deposition after 7 days, read-out: activity (efficacy: 100% means all eggs are infertile); for pest or weed control at 0.004 mg: application rate 4 μg/tick; for pest or weed control at 0.02 mg: application rate 20 μg/tick
Experimental: Rhipicephalus (Boophilus) Microplus—Injection Test (BOOPMI Inj)
Solvent: dimethyl sulfoxide
To produce a suitable preparation of active compound, 10 mg of active compound are dissolved in 0.5 mL solvent, and the concentrate is diluted with solvent to the desired concentration.
Five adult engorged female ticks (Rhipicephalus microplus) are injected with 1 μL compound solution into the abdomen. The ticks are transferred into replica plates and incubated in a climate chamber.
After 7 days egg deposition of fertile eggs is monitored. Eggs where fertility is not visible are stored in a climate chamber till hatching after about 42 days. An efficacy of 100% means all eggs are infertile; 0% means all eggs are fertile.

[2] = tested on: Diabrotica balteata; assay: Diabrotica balteata spray test; details: 168 h, wheat seeds, larvae, after 7 days, read-out: activity (efficacy: 100% means all seedlings have grown up like in the untreated, uninfected control); for pest or weed control at 32 µg/disc, 100 g/ha: application rate 100 g/ha (=32 μg/well)
Experimental: Diabrotica balteata—Spray Test Solvent: 78.0 parts by weight of acetone • • 1.5 parts by weight of dimethylformamide Emulsifier: alkylarylpolyglycol ether
(§1) To produce a suitable preparation of active compound, 1 part by weight of active compound is mixed with the stated amount of solvent, and the concentrate is diluted with water, containing an emulsifier concentration of 1000 ppm, to the desired concentration. Further test concentrations are prepared by dilution with emulsifier containing water.
Soaked wheat seeds (Triticum aestivum) are placed in a multiple well plate filled with agar and some water and are incubated for 1 day to germinate (5 seeds per well). The germinated wheat seeds are sprayed with a test solution containing the desired concentration of the active ingredient. Afterwards each unit is infected with 10-20 larvae of the banded cucumber beetle (Diabrotica balteata).
After 7 days efficacy in % is determined. 100% means all the seedlings have grown up like in the untreated, uninfected control; 0% means none of the seedlings have grown.

[3] = tested on: Rhipicephalus microplus; assay: Rhipicephalus (Boophilus) microplus in-vitro contact test, larval cattle tick, strain Parkhurst (BOOPMI Cont); details: application rate 5 μg/cm^2 (=500 g/ha), tick larvae, after 48 hours, read-out: activity (efficacy: 100% means all larvae are dead or moribund)
Experimental: Rhipicephalus (Boophilus) Microplus—In-Vitro Contact Tests Larval Cattle Tick (Strain Parkhurst, Resistant Against Synthetic Pyrethroids) (BOOPMI Cont)
9 mg compound is solved in 1 mL acetone and diluted with acetone to the desired concentration. 250 μL of the test solution is filled in 25 mL glass test tubes and homogeneously distributed on the inner walls by rotation and tilting on a shaking device (2 h at 30 rpm). With a compound concentration of 900 ppm, an inner surface of 44.7 cm^2 and a homogeneous distribution, a dose of 5 μg/cm^2 is achieved.
After the solvent has evaporated, each test tube is filled with 20-50 cattle tick larvae (Rhipicephalus microplus), closed with a perforated lid and incubated in a horizontal position at 85% relative humidity and 27° C. in an incubator. After 48 hours efficacy is determined. The larvae are patted on the ground of the tubes and negative geotactic behavior is recorded.
An efficacy of 100% means all larvae are dead or moribund; 0% means no larvae are dead or moribund.

[4] = tested on: Ctenocephalides felis; assay: Ctenocephalides felis oral test (CTECFE Oral); details: 48 h, read-out: activity (mortality)
Experimental: Ctenocephalides felis—Oral Test (CTECFE Oral) Solvent: dimethyl sulfoxide
To produce a suitable preparation of active compound, 10 mg of active compound are dissolved in 0.5 mL solvent, and the concentrate is diluted with cattle blood to the desired concentration.
Approximately 20 adult unfed cat fleas (Ctenocephalides felis) are placed in flea chambers. The blood chamber, sealed with parafilm on the bottom, are filled with cattle blood supplied with compound solution and placed on the gauze covered top of the flea chamber, so that the fleas are able to suck the blood. The blood chamber is heated to 37° C. whereas the flea chamber is kept at room temperature.
After 2 days mortality in % is determined. 100% means all the fleas have been killed; 0% means none of the fleas have been killed.

[5] = tested on: Myzus persicae; assay: Myzus persicae oral test; details: 120 h, read-out: activity (mortality)
Experimental: Myzus persicae—Oral Test Solvent: 100 parts by weight acetone
To produce a suitable preparation of active compound, 1 part by weight of active compound is mixed with the stated amount of solvent, and the concentrate is diluted with water to the desired concentration.
50 μL compound solution is filled in microtiter plates and 150 μL IPL41 insect medium (33%+15% sugar) is added to obtain a total volume of 200 μL per well. Afterwards the plates are sealed with parafilm through which a mixed population of the green peach aphid (Myzus persicae) can suck on the compound preparation.
After 5 days mortality in % is determined. 100% means all aphids have been killed and 0% means none of the aphids have been killed.

[6] = tested on: Spodoptera frugiperda; assay: Spodoptera frugiperda spray test; details: in Zea mays, 168 h, read-out: activity (mortality)
Experimental: Spodoptera Fruaiperda—Spray Test
Solvent: 78.0 parts by weight acetone • 1.5 parts by weight dimethylformamide Emulsifier: alkylarylpolyglycol ether
as §1, with “solvents” for “solvent,”, “and” for “and the concentrate”
Maize (Zea mays) leaf sections are sprayed with a preparation of the active ingredient of the desired concentration. Once dry, the leaf sections are infested with fall armyworm larvae (Spodoptera frugiperda).
After 7 days mortality in % is determined. 100% means all caterpillars have been killed and 0% means none of the caterpillars have been killed.

[7] = tested on: Musca domestica strain WHO—N; assay: Musca domestica test (MUSCDO surface treatment & contact assay); details: surface concentration 20 mg/m^2, glazed tile, exposure 30 minutes, 24 hours after contact, read-out: efficacy (mortality)
Experimental: Musca domestica Test (MUSCDO Surface Treatment & Contact Assay) Solvent: Aceton+2000 ppm rapeseed oil methyl ester (RME)
(§2) In order to produce a sufficient, active ingredient containing solution it is necessary to solve the test compound in the solvent-mix (acetone at 2 mg/ml/RME 2000 ppm). This solution is pipetted onto a glazed tile and after evaporation of the acetone, adult flies of the species Musca domestica strain WHO—N are placed onto the dried surface. The exposure time is 30 minutes. Mortality in percent (%) is determined 24 hours after contact of the insects to the treated surface. 100% mortality means that all tested insects are dead, whereas 0% means that no insect died.

[8] = tested on: Aedes aegypti strain MONHEIM; assay: Aedes aegypti test (AEDSAE surface treatment & contact assay); details: exposure 30 minutes, 24 hours after contact, read-out: efficacy (mortality); for mortality at 20 mg/m2: surface concentration 20 mg/m^2, glazed tile; for mortality at 4 mg/m2: surface concentration 4 mg/m^2, glazed tile
Experimental: Aedes aegypti Test (AEDSAE Surface Treatment & Contact Assay) Solvent: Aceton+2000 ppm rapeseed oil methyl ester (RME)
as §2, with “mosquitoes” for “flies”, “Aedes aegypti” for “Musca domestica”, “MONHEIM” for “WHO—N”

[9] = tested on: Rhipicephalus sanguineus; assay: Rhipicephalus sanguineus in-vitro contact test, adult brown dog ticks (RHIPSA Cont); details: 48 h, after 48 hours, read-out: activity (efficacy: 100% means all ticks are dead or moribund); for pest or weed control at 1 µg/cm2, 100 g/ha: application rate 1 μg/cm^2 (=100 g/ha); for pest or weed control at 5 µg/cm2, 500 g/ha: application rate 5 μg/cm^2 (=500 g/ha)
Experimental: Rhipicephalus sanguineus-In-Vitro Contact Tests with Adult Brown Dog Ticks ([…] Cont) 9 mg compound is solved in 1 mL acetone and diluted with acetone to the desired concentration. 250 μL of the test solution is filled in 25 mL glass test tubes and homogeneously distributed on the inner walls by rotation and tilting on a shaking device (2 h at 30 rpm). […] After 48 hours efficacy is determined. The ticks are patted on the ground of the tubes and are incubated on a heating plate at 45-50° C. for at most 5 minutes. Immotile or uncoordinated moving ticks, which are not able to escape the heat by climbing upwards, are marked as dead or moribund.

Row | SMILES | pest or weed control at 0.004 mg [1] | pest or weed control at 32 µg/disc, 100 g/ha [2] | pest or weed control at 5 µg/cm2 [3] | mortality at 100 ppm [4] | mortality at 4 ppm [5] | mortality at 100 g/ha [6] | pest or weed control at 0.02 mg [1] | pest or weed control at 160 µg/disc, 500 g/ha ([2]; application rate 500 g/ha (=160 μg/well)) | mortality at 500 g/ha [6] | mortality at 20 mg/m2 [7] | mortality at 20 mg/m2 [8] | pest or weed control at 1 µg/cm2, 100 g/ha [9] | pest or weed control at 5 µg/cm2, 500 g/ha [9] | mortality at 4 mg/m2 [8]
1 | CC(NC(=O)c1cc(C(F)(F)F)cc(C(F)(F)F)c1)c1nc(Br)nn1-c1ccc(C#N)cn1 (racemic) [I-48, 3,5-di(trifluoromethyl)-N-{1-[3-bromo-1-(3-cyano-pyridin-6-yl)-1H-1,2,4-triazol-5-yl]ethyl}-benzamide] | 100% | 100% | 100% | 100% | 90% | 100% | – | – | – | – | – | – | – | –
2 | COc1nc([C@H](C)NC(=O)c2cc(Cl)cc(C(F)(F)F)c2)n(-c2ccc(C#N)cn2)n1 [I-10, 3-chloro-N-{(1S)-1-[1-(5-cyanopyridin-2-yl)-3-methoxy-1H-1,2,4-triazol-5-yl]ethyl}-5-(trifluoromethyl)benzamide] | 100% | 100% | 100% | 100% | 100% | 100% | 100% | 100% | 100% | 80 to 100% | – | – | – | –
3 | CC(C)c1nc([C@H](C)NC(=O)c2cncc(Br)c2)n(-c2ccc(C#N)cn2)n1 [I-27] | 100% | – | 90% | 100% | – | – | 100% | – | – | – | 80 to 100% | 100% | 100% | –
4 | C[C@H](NC(=O)c1cc(Br)cc(C(F)(F)F)c1)c1nc(C2CC2)nn1-c1ccc(C#N)cn1 [I-31] | 100% | 100% | 100% | 100% | 100% | – | 100% | – | – | 80 to 100% | – | – | 80% | –
5 | C[C@H](NC(=O)c1cc(Cl)cc(Br)c1)c1nc(C2CC2)nn1-c1ccc(C#N)cn1 [I-32] | 100% | 100% | 100% | 100% | 100% | 100% | 100% | – | – | – | – | 80% | 100% | –
6 | C[C@H](NC(=O)c1cc(Cl)cc(OC(F)F)c1)c1nc(C2CC2)nn1-c1ccc(C#N)cn1 [I-34] | 100% | 100% | 90% | 100% | – | 100% | 100% | – | – | 80 to 100% | – | – | – | –
7 | C[C@H](NC(=O)c1cc(Br)cc(C#N)c1)c1nc(C2CC2)nn1-c1ccc(C#N)cn1 [I-35] | 100% | 100% | 100% | 100% | – | – | 100% | – | – | 80 to 100% | 80 to 100% | – | – | –
8 | Cc1nc([C@H](C)NC(=O)c2cncc(Br)c2)n(-c2ccc(C#N)cn2)n1 [II-49] | 100% | 100% | 100% | 100% | – | – | 100% | – | – | – | – | – | 100% | 80 to 100%
9 | CC[C@H](NC(=O)c1cc(Cl)cc(C(F)(F)F)c1)c1ncnn1-c1ncc(OC(F)F)cn1 [II-64] | 100% | 100% | 100% | 100% | – | 100% | 100% | – | – | – | 80 to 100% | – | 80% | –
10 | C[C@H](NC(=O)c1cc(Br)c(F)c(Br)c1)c1ncnn1-c1ccc(C#N)cn1 [II-82] | 100% | 80% | 100% | 100% | – | 100% | – | – | – | – | 80 to 100% | 80% | 80% | 80 to 100%

Reference: patent US20220274947A1, “NOVEL HETEROARYL-TRIAZOLE COMPOUNDS AS PESTICIDES” (Bayer Aktiengesellschaft, priority 2019, published 2022)
